One assay concerns Schwann cells. The assay is described as follows: Intracellular NAD+ in Schwann cells (NAD-glo assay). The format is cell-based, mouse. As to conditions: 100 μM vacor, 72 hours, compared to DMSO control. On the procedure:
Freshly plated mouse Schwann cells were obtained from P2 sciatic and brachial nerves. Nerves were digested with trypsin and collagenase, centrifuged and plated on laminin/Poly-L-lysine coated glass coverslips in defined medium as previously described (Arthur-Farraj et al., 2011).
[…] Protein was extracted using Pierce™ IP Lysis Buffer supplemented with cOmplete™ Mini EDTA-free Protease Inhibitor Cocktail, and a BCA assay carried out to determine protein concentration. All samples were diluted to 0.5 μg/μL. The NAD-glo assay was performed according to manufacturer's instruction of the NAD^+/NADH-Glo™ assay by Promega (G9071). In short, 25 μL of sample were incubated with 12.5 μL 0.4M HCl at 60° C. for 15 min, before 12.5 μL 0.5M Tris base were added. 10 μL NAD^+ standards or sample were then mixed with 10 μL NAD-glo master mix (1 ml luciferin detection reagent, 5 μl reductase, 5 μl reductase substrate, 5 μl NAD^+ cycling enzyme, 25 μl NAD^+ cycling substrate) and incubated at RT for 40 min. Luminescence was read using a GloMax® Explorer microplate reader and NAD^+ concentrations determined relative to a NAD^+ standard curve.

In a further assay the test system is human primary myoblasts. The assay is described as follows: Cell death assay in human primary myoblasts (propidium iodide). The following applies: high dose vacor (100 μM), 24 h vs DMSO. The class given is cell-based. The procedure: (§1) Human primary myoblasts and human dermal skin fibroblasts were cultured following previously described protocols (Kisiel and Klar 2019; Rozwadowska et al. 2022). Drug treatment was started when cells reached the desired confluency. To visualise cell death, 1 μg/ml propidium iodide (PI) (Thermo Fisher Scientific) was added to the media at the same time of drug addition (Loreto et al. 2021). Phase contrast and fluorescence microscopy images were acquired on a DMi8 upright fluorescence microscope (Leica microsystems) coupled to a monochrome digital camera (Hamamatsu C4742-95). The objective used was HCXPL 20 X/0.40 CORR.

Assay [1] concerns human dermal skin fibroblasts. The assay is described as follows: Cell death assay in human dermal skin fibroblasts (propidium iodide). The class given is cell-based. As to conditions: high dose vacor (100 μM), 72 h vs DMSO. On the procedure: as §1
The subject of another assay is Human foetal DRG axons. Nature of the assay: Axon degeneration and regeneration assay in human foetal DRGs in microfluidic chambers. The class given is cell-based. The following applies: 24 h after addition of 25 μM Vacor in the axonal compartment. On the procedure:
Human foetal DRG ganglia were dissected, dissociated and plated in microfluidic chambers (150 μm barrier, XONA Microfluidics) in 35 mm tissue culture dishes pre-coated with poly-L-lysine (100 μg/ml for 1 hr; Merck) and laminin (20 μg/ml for 1 hr; Merck) in Dulbecco's Modified Eagle's Medium (DMEM, Gibco) with 1% penicillin/streptomycin, 33 ng/ml 2.5 S NGF (all Invitrogen) and 2% B27 (Gibco). 4 μM aphidicolin (Merck) was used to reduce proliferation and viability of small numbers of non-neuronal cells. On DIV7, a difference of 100 μl of media between chambers was introduced and drugs were added to the compartment with the lower hydrostatic pressure. Phase contrast microscopy images were acquired on a DMi8 upright fluorescence microscope (Leica microsystems) coupled to a monochrome digital camera (Hamamatsu C4742-95). The objective used was HCXPL 20 X/0.40 CORR.

For assay [2], the system named is expanded mouse Schwann cells. Nature of the assay: Cell death in expanded mouse Schwann cells passaged three times (phase contrast, propidium iodide). The class given is cell-based. The following applies: 100 μM vacor for 72 hours vs DMSO; Schwann cells passaged three times in proliferative medium. On the procedure:
Mouse SCs were passaged on PLL/laminin coated dishes in the presence of low serum (0.5% horse serum), 10 ng/ml Bneuregulin1 (BNRG1), and a low concentration cyclic adenosine monophosphate (CAMP) elevating signal, such as 2 μM forskolin or 100 μM dibutryl cAMP (Arthur-Farraj et al., 2011). Full protocol is described in (Mutschler et al., 2023).

In another assay the target is T1, SARM1 (Homo sapiens, UniProt Q6SZW1).
T1 sequence (Q6SZW1 28-724): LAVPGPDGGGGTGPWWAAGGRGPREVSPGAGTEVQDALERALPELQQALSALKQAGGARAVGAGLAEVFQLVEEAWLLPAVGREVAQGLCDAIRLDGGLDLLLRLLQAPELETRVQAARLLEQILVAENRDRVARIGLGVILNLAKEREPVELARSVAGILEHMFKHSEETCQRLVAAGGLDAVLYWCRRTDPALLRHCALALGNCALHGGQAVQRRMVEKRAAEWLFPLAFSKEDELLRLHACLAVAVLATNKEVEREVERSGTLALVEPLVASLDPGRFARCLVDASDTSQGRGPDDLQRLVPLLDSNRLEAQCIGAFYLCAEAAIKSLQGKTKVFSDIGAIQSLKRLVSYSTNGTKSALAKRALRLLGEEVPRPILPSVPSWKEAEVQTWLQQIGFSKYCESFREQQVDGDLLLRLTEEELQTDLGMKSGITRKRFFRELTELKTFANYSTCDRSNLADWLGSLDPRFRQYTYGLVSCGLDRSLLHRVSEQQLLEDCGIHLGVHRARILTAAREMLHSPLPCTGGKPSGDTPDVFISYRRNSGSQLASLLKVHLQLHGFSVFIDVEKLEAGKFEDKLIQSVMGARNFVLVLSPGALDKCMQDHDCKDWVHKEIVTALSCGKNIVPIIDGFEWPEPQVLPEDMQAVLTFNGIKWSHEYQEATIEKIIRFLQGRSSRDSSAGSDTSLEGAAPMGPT
The following applies: Loreto et al., 2021; Angeletti et al., 2022; Wu et al.; cited from earlier work.

“Also recorded” adds a separate entry of the source.

For the compound `O=C(NCc1cccnc1)Nc1ccc([N+](=O)[O-])cc1` [vacor, Vacor], the “Intracellular NAD+ levels” value with Schwann cells was “no reduction; also recorded: do not change”. The “cell death by propidium iodide (P.I.) staining” value (in the assay on human primary myoblasts; in assay [1]) was “completely insensitive; also recorded: no cell death occurs” each time. In the assay with Human foetal DRG axons, the DRG axon degeneration result is reported as “degenerate”. The “cell death by propidium iodide (P.I.) staining and phase contrast” value in assay [2] was “susceptible to cellular dysfunction and death; also recorded: substantial increase in P.I. staining”. On SARM1, the “SARM1 activity on interaction with active site (TIR domain) for base exchange reaction” value was “modest increase in SARM1 activity”.

The values are drawn from patent US20260166017A1, “SARM1 INHIBITORS FOR USE IN THERAPY AND COSMETICS” (priority 2022, published 2026).
